How the values were obtained:
Ba/F3-FL-EGFR = molecular target: T1, Ba/F3-FL-EGFR (Homo sapiens, UniProt P00533); test: CellTiter-Glo proliferation, Ba/F3-FL-EGFR; assay type: cell-based; settings: 72 hours, read-out: Ba/F3-FL-EGFR IC50/nM
T1 construct: FL read as full length
Outline: (§1)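 Ba/F3 lines dependent on the indicated EGFR variants were treated with compounds at a final DMSO concentration of 0.1% at 37 °C, 5% CO2. Viability was read by CellTiter-Glo luminescence, and inhibition rate was normalised to DMSO-treated cells (max) and medium-only wells (min). IC50 came from inhibition curves.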

[1] = test system: BaF3 (del19/T790M1C797S) tumor cells; test: In vivo efficacy assay in BALB/c nude mice, subcutaneous BaF3 tumor; settings: for TGI: based on final tumor volume
Experimental: In vivo efficacy assay in BALB/c nude mice. Details were as follows:
BaF3 (del19/T790M1C797S) tumor cells were cultured and inoculated into 6-8 weeks old female BALB/c nude mice (weighing about 20 g), with all mice being subcutaneously inoculated. The mice were cultured in an SPF-grade experimental environment, and all mice had free access to commercially certified standard diets. When the average tumor volume of the mice grew to about 150 mm^3, the test compound was orally administered daily. The dosage was as follows: blank group vehicle (DMSO/Solutol/H2O, 5/10/85). […] The tumor volume was measured three times a week with a two-dimensional caliper, and the animals were weighed every day. […] The volume calculation formula is: V=1/2a*b^2, where a represents the long diameter of the tumor, and b represents the short diameter of the tumor.

[2] = test system: Ba/F3-FL-EGFR-del19-C797S; test: CellTiter-Glo proliferation, Ba/F3-FL-EGFR-del19-C797S; assay type: cell-based; settings: 72 h, proliferation, 72 hours, CellTiter-Glo; read-out: Ba/F3-FL-EGFR-del19-C797S IC50/nM
Outline: as §1

[3] = Liver microsome stability test, human; assay type: in vitro ADME; settings: human liver microsomes 0.5 mg/ml, compound 1 μM, NADPH 1 mM, within 60 minutes
Experimental: The compounds of the present disclosure were subjected to a liver microsome stability test. The compounds to be tested were co-incubated with liver microsomes of different species with or without the addition of NADPH. The final concentration of the compounds to be tested in the test system was 1 μM. The final concentration of NADPH was 1 mM, and the final concentration of liver microsomes was 0.5 mg/ml.

EGFR (L858R/C797S) = EGFR (L858R/C797S) (Homo sapiens, UniProt P00533, C797S/L858R); test: MSA (Mobility Shift Assay) kinase activity, EGFR-L858R-C797S; assay type: biochemical
Outline: (§2)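 Kinase preincubated with compound 10 min at room temperature, then reaction started with ATP plus substrate in 1x kinase buffer and run at room temperature. Substrate-to-product conversion read by mobility shift; % inhibition normalised to no-enzyme and no-compound controls, IC50 from variable-slope four-parameter fit.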

EGFR (L858R/T790M/C797S) = EGFR (L858R/T790M/C797S) (Homo sapiens, UniProt P00533, C797S/L858R/T790M); test: MSA (Mobility Shift Assay) kinase activity, EGFR-L858R-T790M-C797S; assay type: biochemical
Outline: as §2

[4] = molecular target: T2, Ba/F3-TEL-EGFR-L858R-C797S (Homo sapiens, UniProt P00533, C797S/L858R, cells depend on it); test: CellTiter-Glo proliferation, Ba/F3-TEL-EGFR-L858R-C797S; assay type: cell-based; settings: 72 hours, read-out: Ba/F3-TEL-EGFR-L858R-C797S IC50/nM
T2 construct: fused on or other part: N-terminal TEL (ETV6) oligomerising part fused to the EGFR intracellular/kinase part; P41212 (Transcription factor ETV6)
Outline: as §1

[5] = 100 mg/kg BID oral (50 mg/kg for the first 4 days, 100 mg/kg from the 5th day), after 13 days

EGFR (L858R/C797S), sequence (P00533 25-1210 C797S/L858R): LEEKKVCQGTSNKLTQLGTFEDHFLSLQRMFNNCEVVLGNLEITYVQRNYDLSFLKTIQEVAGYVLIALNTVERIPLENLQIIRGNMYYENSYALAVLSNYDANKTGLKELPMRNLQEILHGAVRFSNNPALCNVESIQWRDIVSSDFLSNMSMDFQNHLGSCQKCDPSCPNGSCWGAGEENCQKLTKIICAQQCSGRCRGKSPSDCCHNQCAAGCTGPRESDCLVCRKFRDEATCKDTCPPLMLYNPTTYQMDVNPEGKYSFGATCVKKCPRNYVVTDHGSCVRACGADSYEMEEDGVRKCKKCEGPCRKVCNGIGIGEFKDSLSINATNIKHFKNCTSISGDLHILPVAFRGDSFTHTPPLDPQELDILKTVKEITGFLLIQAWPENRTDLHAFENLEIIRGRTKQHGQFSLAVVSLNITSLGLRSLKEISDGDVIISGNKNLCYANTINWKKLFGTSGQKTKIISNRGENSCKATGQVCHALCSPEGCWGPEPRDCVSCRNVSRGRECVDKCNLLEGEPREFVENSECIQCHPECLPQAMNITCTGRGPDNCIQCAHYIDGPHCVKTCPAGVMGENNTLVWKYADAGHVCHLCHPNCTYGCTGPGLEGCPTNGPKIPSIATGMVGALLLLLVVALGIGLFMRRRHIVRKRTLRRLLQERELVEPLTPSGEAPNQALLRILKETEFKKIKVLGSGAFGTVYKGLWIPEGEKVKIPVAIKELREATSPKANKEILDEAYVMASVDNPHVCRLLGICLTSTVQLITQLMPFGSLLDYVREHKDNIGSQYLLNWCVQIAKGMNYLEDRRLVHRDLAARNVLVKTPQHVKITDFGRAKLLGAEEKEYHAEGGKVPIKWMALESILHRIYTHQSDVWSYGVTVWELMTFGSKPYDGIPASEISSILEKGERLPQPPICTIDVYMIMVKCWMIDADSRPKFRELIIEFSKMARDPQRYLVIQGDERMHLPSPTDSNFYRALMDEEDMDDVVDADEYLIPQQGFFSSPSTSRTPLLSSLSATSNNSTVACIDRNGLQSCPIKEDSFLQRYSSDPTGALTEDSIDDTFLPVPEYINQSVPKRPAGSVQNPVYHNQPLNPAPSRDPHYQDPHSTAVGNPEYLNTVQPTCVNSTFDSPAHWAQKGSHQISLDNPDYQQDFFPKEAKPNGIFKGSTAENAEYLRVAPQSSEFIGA
T1 sequence (P00533 whole entry, change not shown): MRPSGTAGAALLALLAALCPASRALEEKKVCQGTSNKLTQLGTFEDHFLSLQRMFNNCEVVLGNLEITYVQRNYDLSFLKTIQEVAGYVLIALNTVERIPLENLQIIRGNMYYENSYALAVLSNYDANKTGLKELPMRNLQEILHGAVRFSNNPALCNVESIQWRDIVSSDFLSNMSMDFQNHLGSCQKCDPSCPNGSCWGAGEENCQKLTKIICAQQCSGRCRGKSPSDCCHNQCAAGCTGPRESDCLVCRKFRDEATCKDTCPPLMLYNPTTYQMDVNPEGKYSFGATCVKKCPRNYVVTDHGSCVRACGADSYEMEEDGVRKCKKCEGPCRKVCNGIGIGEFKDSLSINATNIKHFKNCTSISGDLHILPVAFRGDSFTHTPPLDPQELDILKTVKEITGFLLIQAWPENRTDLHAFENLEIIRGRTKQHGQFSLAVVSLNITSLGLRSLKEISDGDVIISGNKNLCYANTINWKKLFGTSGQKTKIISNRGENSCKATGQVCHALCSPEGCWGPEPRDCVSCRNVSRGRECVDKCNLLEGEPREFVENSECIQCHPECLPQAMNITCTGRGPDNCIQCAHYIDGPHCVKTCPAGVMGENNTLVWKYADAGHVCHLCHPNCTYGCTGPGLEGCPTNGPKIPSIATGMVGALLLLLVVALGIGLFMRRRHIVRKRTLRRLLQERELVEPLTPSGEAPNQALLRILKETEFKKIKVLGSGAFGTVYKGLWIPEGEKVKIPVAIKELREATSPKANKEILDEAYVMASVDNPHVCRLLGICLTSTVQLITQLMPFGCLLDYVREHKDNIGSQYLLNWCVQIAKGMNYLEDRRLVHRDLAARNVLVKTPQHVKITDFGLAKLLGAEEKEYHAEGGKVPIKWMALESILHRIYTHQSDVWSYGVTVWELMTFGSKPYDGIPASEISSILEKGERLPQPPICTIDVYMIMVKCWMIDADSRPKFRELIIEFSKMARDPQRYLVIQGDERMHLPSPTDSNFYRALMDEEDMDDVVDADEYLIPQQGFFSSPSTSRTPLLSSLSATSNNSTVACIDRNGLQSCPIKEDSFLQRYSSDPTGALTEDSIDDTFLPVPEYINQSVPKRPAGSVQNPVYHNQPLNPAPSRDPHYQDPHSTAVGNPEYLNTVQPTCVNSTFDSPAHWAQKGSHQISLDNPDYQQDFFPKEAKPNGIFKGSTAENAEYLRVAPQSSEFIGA
EGFR (L858R/T790M/C797S), sequence (P00533 25-1210 T790M/C797S/L858R): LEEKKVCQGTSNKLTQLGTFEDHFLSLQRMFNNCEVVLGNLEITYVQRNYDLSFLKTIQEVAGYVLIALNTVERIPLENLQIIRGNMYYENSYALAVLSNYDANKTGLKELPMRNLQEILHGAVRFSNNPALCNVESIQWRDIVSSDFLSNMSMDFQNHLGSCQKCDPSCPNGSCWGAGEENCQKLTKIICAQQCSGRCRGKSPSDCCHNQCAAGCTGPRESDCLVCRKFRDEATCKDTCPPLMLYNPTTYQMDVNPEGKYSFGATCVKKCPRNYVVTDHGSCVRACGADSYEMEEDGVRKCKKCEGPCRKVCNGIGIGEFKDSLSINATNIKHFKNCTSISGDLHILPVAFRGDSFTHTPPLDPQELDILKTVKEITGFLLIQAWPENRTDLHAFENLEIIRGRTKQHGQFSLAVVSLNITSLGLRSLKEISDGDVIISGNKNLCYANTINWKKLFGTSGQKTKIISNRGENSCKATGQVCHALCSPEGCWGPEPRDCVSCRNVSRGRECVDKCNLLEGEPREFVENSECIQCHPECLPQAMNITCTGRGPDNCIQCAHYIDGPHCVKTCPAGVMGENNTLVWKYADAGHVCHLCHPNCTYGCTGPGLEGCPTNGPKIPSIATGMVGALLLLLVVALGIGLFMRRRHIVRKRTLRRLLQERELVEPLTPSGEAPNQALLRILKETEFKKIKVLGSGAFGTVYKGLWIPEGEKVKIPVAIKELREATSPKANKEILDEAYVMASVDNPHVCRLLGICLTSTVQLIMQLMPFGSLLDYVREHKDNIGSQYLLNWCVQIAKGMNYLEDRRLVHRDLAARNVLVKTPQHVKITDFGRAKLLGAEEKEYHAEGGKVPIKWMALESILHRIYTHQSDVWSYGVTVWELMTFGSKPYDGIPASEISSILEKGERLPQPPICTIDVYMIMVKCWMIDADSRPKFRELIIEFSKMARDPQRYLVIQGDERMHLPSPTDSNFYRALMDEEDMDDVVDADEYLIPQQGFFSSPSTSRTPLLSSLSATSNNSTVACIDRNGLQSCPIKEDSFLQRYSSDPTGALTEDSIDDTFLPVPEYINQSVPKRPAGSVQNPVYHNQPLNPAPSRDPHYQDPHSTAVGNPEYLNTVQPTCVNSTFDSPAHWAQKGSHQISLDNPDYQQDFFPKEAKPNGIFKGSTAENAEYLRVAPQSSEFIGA
T2 sequence (P00533 whole entry C797S/L858R, the tested form may be a part): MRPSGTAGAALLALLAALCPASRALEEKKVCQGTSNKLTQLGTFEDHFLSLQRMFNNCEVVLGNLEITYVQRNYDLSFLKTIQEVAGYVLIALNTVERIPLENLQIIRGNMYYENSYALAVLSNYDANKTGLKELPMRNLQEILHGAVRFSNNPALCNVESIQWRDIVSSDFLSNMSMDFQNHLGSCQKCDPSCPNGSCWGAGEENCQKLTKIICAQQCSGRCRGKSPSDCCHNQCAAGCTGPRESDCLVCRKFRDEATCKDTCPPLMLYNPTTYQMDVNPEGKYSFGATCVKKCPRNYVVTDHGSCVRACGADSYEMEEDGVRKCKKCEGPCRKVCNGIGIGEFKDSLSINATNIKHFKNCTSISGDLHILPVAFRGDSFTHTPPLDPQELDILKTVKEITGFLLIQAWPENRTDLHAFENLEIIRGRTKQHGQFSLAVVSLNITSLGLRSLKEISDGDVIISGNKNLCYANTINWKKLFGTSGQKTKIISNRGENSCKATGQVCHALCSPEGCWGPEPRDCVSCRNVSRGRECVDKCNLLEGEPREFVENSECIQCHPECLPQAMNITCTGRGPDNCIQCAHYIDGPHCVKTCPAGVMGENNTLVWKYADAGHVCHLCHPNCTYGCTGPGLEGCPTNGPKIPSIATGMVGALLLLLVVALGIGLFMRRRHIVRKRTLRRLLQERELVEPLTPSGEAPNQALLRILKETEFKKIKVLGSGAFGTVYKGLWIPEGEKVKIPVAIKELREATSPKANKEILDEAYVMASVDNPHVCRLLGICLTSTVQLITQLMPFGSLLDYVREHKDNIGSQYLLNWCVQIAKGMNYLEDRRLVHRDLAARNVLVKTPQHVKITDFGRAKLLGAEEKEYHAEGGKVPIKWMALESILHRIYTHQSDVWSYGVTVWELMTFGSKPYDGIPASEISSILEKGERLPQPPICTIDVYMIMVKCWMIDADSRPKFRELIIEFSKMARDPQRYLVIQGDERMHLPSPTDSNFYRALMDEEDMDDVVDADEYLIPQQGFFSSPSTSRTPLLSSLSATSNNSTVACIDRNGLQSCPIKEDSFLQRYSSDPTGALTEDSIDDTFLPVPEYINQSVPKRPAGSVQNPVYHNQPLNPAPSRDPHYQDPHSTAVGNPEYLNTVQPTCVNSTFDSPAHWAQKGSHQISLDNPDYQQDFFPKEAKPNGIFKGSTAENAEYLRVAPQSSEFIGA

Compound	GI50 (Ba/F3-FL-EGFR)	Tumor volume (mm^3) ([1]; 100 mg/kg, BID, oral, after 13 consecutive days of administration)	TGI ([1]; 100 mg/kg, BID, oral, after 13 consecutive days)	IC50 [2]	CLint scaled at 1 μM [3]	IC50 (EGFR (L858R/C797S))	IC50 (EGFR (L858R/T790M/C797S))	GI50 [4]	Tumor volume (mm^3) [1, 5]	TGI [1, 5]
CC(C)c1ccc(N2CC(N(C)S(C)(=O)=O)C2)c2cnc(Nc3ccnc(N4CC[C@@H](O)[C@@H](F)C4)n3)cc12 [Compound P39a]	670 nM	945 mm^3	79%	52 nM	< 8.6 mL/min/kg	2 nM	0.05 nM	14 nM		
CC(C)c1ccc(N2C[C@H](CS(C)(=O)=O)[C@H]2C)c2cnc(Nc3ccnc(-c4cnn(S(=O)(=O)C5CC5)c4)n3)cc12 [Compound H12]	209 nM			4.3 nM	14.2 mL/min/kg	0.6 nM	0.43 nM	5.8 nM	1341 mm^3	68%

— patent US20250092017A1, “2-PIPERIDYL OR 2-PYRAZOLYL SUBSTITUTED PYRIMIDINE COMPOUND SERVING AS EGFR INHIBITOR” (SUZHOU PUHE BIOPHARMA CO., LTD., priority 2022, published 2025)
